Source: patent US20110245105A1, “Methods and Kits for Direct Detection and Susceptibility Profiling of Beta-Lactam Resistant Bacteria” (YISSUM RESEARCH DEVELOPMENT COMPANY OF THE HEBREW …, priority 2008, published 2011)

Assays:
[1] = system: carbapenemase; experiment: detection of carbapenemase activity in clinical urine samples; assay type: biochemical; settings: urine pellet streak; 12 min at room temperature; 5.0-30 mg/mL substrate
Description: Activated ART strip impregnated with 30 μL of an aqueous solution of 30, […], 20, 15, 10 and 5.0 mg/mL imipenem (Ipm) or ertapenem (Etp) in positions 1, 2, 3, 4 and 5 on the strip, respectively, was placed in contact with a slide streaked with a urine pellet sample (Ipm+Sam. or Etp+Sam.), or an unstreaked slide (Ipm Cont. or Etp Cont.), […] reaction to appear. Abbreviations: Cont. (control), Etp. (ertapenem), Ipm. (imipenem), sam. (sample).
The product of the enzymatic degradation of a beta-lactam antibiotic removes the iodine from the ART strip and causes local decolorization in that strip. Typically, a detection kit consists of two slides, as illustrated in FIG. 2. The bottom slide is streaked with the sample to be tested. The top slide (lid) carries the ART strip which is activated when each test area on the strip receives 25 μL of the activator solution consisting of 40 mg gelatin in 100 mL phosphate buffer pH 6.5. The test starts when the top slide carrying the freshly activated ART strip contacts the bottom slide carrying the sample. […]
Urine samples were concentrated by a two minute centrifugation step at 3000 RPM and the resulting pellet was streaked on standard slides. […] As shown by the figure, the carbapenemase activity is easily detected using this method, even in samples containing low concentrations of antibiotic substrates.

[2] = system: carbapenem-resistant Enterobacteriaceae; experiment: modular kit for detection of CRE in urine sample; assay type: cell-based; settings: CRE-containing urine sample; as part of augmentin
Description: The kit constructed as a twin-slide [as illustrated by FIG. 1] carries an “OCTET” strip impregnated [as in Example 1] with an array of eight beta-lactam antibiotics and 1 non-beta-lactam control [S].
To illustrate the life-saving potential of the proposed technology which eliminates delays in diagnosis of carbapenem-resistant members of the Enterobacteriaceae family (CRE), a CRE sample was analyzed using the invention's modular kit, containing ampicillin, ceftazidime, augmentin, cefotaxime, imipenem, cefuroxime, meropenem and ceftriaxone as beta-lactamase substrates and a non-beta-lactam antibiotic, served as a negative control.
Filter paper segments were glued to a slide, each segment impregnated with a single antibiotic of the abovementioned antibiotics and streaked with carbapenem-resistant Enterobacteriaceae-containing urine sample pellets, prepared as described in Examples 1 to 3. The slide was contacted with indicator strips attached to a slide.

[3] = system: Citrobacter freundii; experiment: modular antibiotic resistance detection kit on urine sample pellets; assay type: cell-based; settings: profile r23
Description: (§1) A modular antibiotic resistance detection kit offers more flexibility in testing different resistance profiles. In the modular detection kit exemplified here, the ART strip is replaced by filter paper segments glued to a slide, each segment impregnated with a single antibiotic.
(§2) Specifically, pathogen samples were tested using filter papers impregnated with the following beta-lactam antibiotics: ampicillin [Amp], augmentin (a combination of amoxicillin and clavulanic acid) [AMC], clavulanic acid (Reduced Resistance test) [RR], ceftazidime [Caz] and either imipenem or meropenem [CPM]. The impregnation details of the fragments were as in the previous Examples.
(§3) Filter paper (Whatman no. 3] strips impregnated with Assay Reagent solution were used as “indicator strips”. An indicator strip was attached to the plain top slide as shown in FIG. 2. Aliquots of the pellets of the urine samples tested were placed on each of the segments. The test was started by placing the activated indicator-strip-slide, on the modular antibiotic slide. The scan results obtained after 5-10 min at 38° C. are illustrated schematically in FIG. 2 where all segments, except for the negative (no antibiotic) control, show decolorization indicating resistance to each antibiotic in that array.
(§4) Samples resistant to ceftazidime but affected by clavulanic acid were assumed to contain extended spectrum beta lactamases (ESBLs). The ‘Confirmed’ detections column summarizes the number of CLP-validated results out of the total findings recorded.

[4] = system: E. coli; experiment: as above; assay type: cell-based; settings: E. coli, profile r12
Description: as §1, §2, §3, §4

[5] = system: K. pneumoniae; experiment: as above; assay type: cell-based; settings: K. pneumoniae, profile r20
Description: as §1, §2, §3, §4

[6] = system: K. pneumoniae; experiment: conventional lab procedures [CLP], resistance of bacterial isolates; assay type: cell-based; settings: 1 sample (r12)
Excerpt: (§5) The same specimens were examined using conventional lab procedures [CLP] that determined the identity of the bacterial isolates and their resistance to the above beta-lactams.

[7] = system: K. oxytoca; experiment: as above; assay type: cell-based; settings: 1 sample (r15)
Excerpt: as §5

[8] = system: Staphylococcus sp.; experiment: ART strip test on urine sample pellets; assay type: cell-based
Description: (§6) Filter paper (Whatman no. 3) strips impregnated with 50 mM potassium iodide and 10 mM iodine in 0.75% aqueous starch solution were divided into 6 test areas. Appropriate antibiotic substrates were prepared at a final concentration of 20 mg/mL. Each test area was impregnated with 30 μL of the appropriate solution. The strips were then dried in a lyophilizer and stored with a desiccant at 4° C.
(§7) One mL urine samples were spun 2 minutes at 3000 RPM in room temperature. Supernatants were removed and aliquots of the resulting pellets were streaked on standard slides.
(§8) The product of the enzymatic degradation of a beta-lactam antibiotic removes the iodine from the ART strip and causes local decolorization in that strip. Typically, a detection kit consists of two slides, as illustrated in FIG. 2. The bottom slide is streaked with the sample to be tested. The top slide (lid) carries the ART strip which is activated when each test area on the strip receives 25 μL of the activator solution consisting of 40 mg gelatin in 100 mL phosphate buffer pH 6.5. The test starts when the top slide carrying the freshly activated ART strip contacts the bottom slide carrying the sample. It may be carried out at ambient temperatures but will be accelerated by warming-up to 41° C. […] Result is confirmed if no decolorization took place in the absence of the bacteria (the background of that test area) or in the absence of the antibiotic (as in Test Area 2 in FIG. 1).
(§9) One mL urine sample pellets were collected as described in Example 1 and each streaked on a slide. The strip of the invention (termed ART for Antibiotics Resistance Test) was used to test for beta-lactamase and its ability to degrade Ceftazidime [Caz], Ceftriaxone [Cro], Cefuroxime [Cxm] and Ampicillin [Amp]. The strip, containing iodine and starch and divided to areas containing each of the abovementioned antibiotics, and attached to a plain slide, was activated as shown above, and placed on the streaked slide. After 5-15 minutes at 33° C.-38° C. the slide was scanned and recorded.

[9] = system: Prot. mirabilis; experiment: ART strip test on urine sample pellets; assay type: cell-based
Description: as §6, §7, §8, §9

[10] = system: Str. agalactiae; experiment: ART strip test on urine sample pellets; assay type: cell-based; settings: 3 samples (r34)
Description: as §6, §7, §8, §9

[11] = system: Morg. morganii; experiment: ART strip test on urine sample pellets; assay type: cell-based
Description: as §6, §7, §8, §9

[12] = system: Acinetobacter sp.; experiment: ART strip test on urine sample pellets; assay type: cell-based; settings: 1 sample (r29)
Description: as §6, §7, §8, §9

[13] = system: K. pneumoniae; experiment: ART strip test on urine sample pellets; assay type: cell-based
Description: as §6, §7, §8, §9

[14] = system: E. faecalis; experiment: ART strip test on urine sample pellets; assay type: cell-based; settings: 4 samples (r27)
Description: as §6, §7, §8, §9

[15] = system: Citr. koseri; experiment: ART strip test on urine sample pellets; assay type: cell-based; settings: 2 samples (r25)
Description: as §6, §7, §8, §9

[16] = system: K. oxytoca; experiment: ART strip test on urine sample pellets; assay type: cell-based
Description: as §6, §7, §8, §9

[17] = system: E. coli; experiment: ART strip (Antibiotics Resistance Test), iodometric detection of beta-lactam hydrolysis by un-cultured urine sample pellets; assay type: cell-based
Description: as §6, §7, §8, §9

[18] = 28 samples (r6), 5-15 minutes at 33° C.-38° C.

C[C@@H](O)[C@H]1C(=O)N2C(C(=O)O)=C(S[C@@H]3CN[C@H](C(=O)Nc4cccc(C(=O)O)c4)C3)[C@H](C)[C@H]12 [Ert, ertapenem]
hydrolysis by carbapenemase in the sample (decolorization of strip) [1]: hydrolyzing

O=C(O)[C@H]1/C(=C/CO)O[C@@H]2CC(=O)N21 [RR, clavulanic acid]
protection from hydrolysis [2]: no protection from hydrolysis | Effect of clavulanic acid (Reduced Resistance) [3]: N | Effect of clavulanic acid (Reduced Resistance) [4]: N | Effect of clavulanic acid (Reduced Resistance) [5]: N

CO/N=C(\C(=O)N[C@@H]1C(=O)N2C(C(=O)O)=C(CSc3nc(=O)c(=O)[nH]n3C)CS[C@H]12)c1csc(N)n1 [Cro, Ceftriaxone]
CLP result differing from ART (in brackets) [6]: R | CLP result differing from ART (in brackets) [7]: R | resistance profile predicted by ART ([8]; 1 sample (r31)): S | resistance profile predicted by ART ([8]; 1 sample (r32)): S | resistance profile predicted by ART ([9]; 1 sample (r18)): S | resistance profile predicted by ART ([9]; 1 sample (r19)): R | resistance profile predicted by ART ([9]; 1 sample (r20)): S | resistance profile predicted by ART ([9]; 6 samples (r17)): S | resistance profile predicted by ART [10]: S[nd] | resistance profile predicted by ART ([11]; 1 sample (r22)): S | resistance profile predicted by ART ([11]; 1 sample (r23)): R | resistance profile predicted by ART [12]: S | resistance profile predicted by ART ([13]; 1 sample (r12)): S | resistance profile predicted by ART ([13]; 8 samples (r11)): S | resistance profile predicted by ART ([13]; 11 samples (r10), MDR): R | resistance profile predicted by ART [14]: S[nd] | resistance profile predicted by ART [15]: S | resistance profile predicted by ART ([16]; 1 sample (r15)): S | resistance profile predicted by ART ([16]; 3 samples (r14)): S | resistance profile predicted by ART ([17]; 3 samples (r8), MDR): R | resistance profile predicted by ART ([17]; 12 samples (r7)): S | resistance profile predicted by ART [17, 18]: S

CO/N=C(\C(=O)N[C@@H]1C(=O)N2C(C(=O)O)=C(COC(N)=O)CS[C@H]12)c1ccco1 [Cxm, Cefuroxime]
resistance profile predicted by ART ([8]; 1 sample (r31)): S | resistance profile predicted by ART ([8]; 1 sample (r32)): S | resistance profile predicted by ART ([9]; 1 sample (r18)): R | resistance profile predicted by ART ([9]; 1 sample (r19)): R | resistance profile predicted by ART ([9]; 1 sample (r20)): R | resistance profile predicted by ART ([9]; 6 samples (r17)): S | resistance profile predicted by ART [10]: S[nd] | resistance profile predicted by ART ([11]; 1 sample (r22)): S | resistance profile predicted by ART ([11]; 1 sample (r23)): R | resistance profile predicted by ART [12]: S | resistance profile predicted by ART ([13]; 1 sample (r12)): R | resistance profile predicted by ART ([13]; 8 samples (r11)): S | resistance profile predicted by ART ([13]; 11 samples (r10), MDR): R | resistance profile predicted by ART [14]: S[nd] | resistance profile predicted by ART [15]: S | resistance profile predicted by ART ([16]; 1 sample (r15)): R | resistance profile predicted by ART ([16]; 3 samples (r14)): S | resistance profile predicted by ART ([17]; 3 samples (r8), MDR): R | resistance profile predicted by ART ([17]; 12 samples (r7)): S | resistance profile predicted by ART [17, 18]: S
